Results published in patent US6569612B1, “Photographic element containing a high-dye-yield coupler for producing a yellow hue” (Eastman Kodak Company, priority 2001, dated 2003).
Read-outs that look alike come from different tables or passages of the source. One block for each molecule: values may come before it.

Experiment: Measuring pKas of couplers in TRITON X-100 media
Type: physicochemical
Protocol: Procedure for Measuring pKas of Couplers in TRITONX-100 Media:
A solution of the coupler that was ca. 5E-3 M was made with 5.0 mL of dimethyl sulfoxide solvent. A 0.50-mL aliquot of the solution was added to 3.18 g of Triton X- 100 surfactant in a 50-mL volumetric flask. Then ca. 25 mL of ca. 40-deg C. distilled water was added while swirling vigorously. The solution was then cooled to ambient temperature and diluted to 50 mL with water. Various phosphate buffer solutions as potassium salts were prepared with pHs ranging from 3.73 to 12 with ionic strength of 0.75. Ionic strength computations were done using the three pKas for phosphoric acid. A 2.0-mL aliquot of the stock coupler solution was mixed with 2.0 mL of chosen buffer in a 5-dram vial. […] A wavelength between 310 and 350 nm was typically chosen. The pH of the mixture was then measured with a CORNING Model 125 meter. A baseline reference blank spectrum was run with TRITON X-100 (surfactant) and pH 7 buffer. The data of corrected absorbances (differences from the blank spectrum) and pHs were used to compute by least-squares the pKa and the other two unknowns of high and low limiting densities. The pKa measurements are made with an experimental uncertainty within ±0.10, which depends on sources of material, the number of experimental points, number of replicates, and the like.

[1] = Table 3, TRITON X-100 media, read-out: pKa
[2] = Table 5, TRITON X-100 media, read-out: pKa
[3] = Table 7, TRITON X-100 media, read-out: pKa
[4] = Table 4, TRITON X-100 media, read-out: pKa
[5] = Table 8, TRITON X-100 media, read-out: pKa

Structure (SMILES): CCCCCCCCCCCCOC(=O)c1ccc(Cl)c(NC(=O)C(C(=O)c2ccc(OC)cc2)N2C(=O)C(OCC)N(Cc3ccccc3)C2=O)c1 (stereo not drawn) [CY-1, reference compound]
- pKa [1]: 5.1

Structure (SMILES): CCC(C)(C)c1cc(C(C)(C)CC)c2oc(/C(C#N)=C/c3ccc(N(C(=O)OC(C(=O)Nc4cc(CS(=O)(=O)c5ccccc5)ccc4Cl)C(=O)c4ccc(OC)cc4)C4CCCC4)cc3C)nc2c1 (stereo not drawn) [CY-4, reference compound]
- pKa [1]: 10.6

Structure (SMILES): CCC(C)(C)c1cc(C(C)(C)CC)c2oc(/C(C#N)=C/c3ccc(N(C(=O)OC(C(=O)Nc4cc(CS(=O)(=O)c5ccc(O)cc5)ccc4Cl)C(=O)c4ccc(OC)cc4)C4CCCC4)cc3C)nc2c1 (stereo not drawn) [CY-5, reference compound]
- pKa [1]: 10

Structure (SMILES): CCCCCCCCCCCCOC(=O)c1ccc(Cl)c(NC(=O)C(OC(=O)N(C)c2ccc(/C=C(\C#N)c3nc4cc(C(C)(C)C)ccc4o3)c(C)c2)C(=O)c2ccc(OC)cc2)c1 (stereo not drawn) [CY-7, reference compound]
- pKa [1]: 9.1

Structure (SMILES): CCCCCCCCCCCCNS(=O)(=O)c1ccc(NC(=O)C(OC(=O)N(c2ccc(/C=C(\C#N)c3nc4cc(C(C)(C)C)ccc4o3)c(C)c2)C2CCCC2)C(=O)c2ccc(OC)cc2)c(Cl)c1 (stereo not drawn) [CY-8, reference compound]
- pKa [2]: 9.5

Structure (SMILES): CCCCCCCCCCCCCCCCNS(=O)(=O)c1ccc(Cl)c(NC(=O)C(OC(=O)N(CCCCCCCCCCCC)c2ccc(/C=C(\C#N)c3nc4ccccc4o3)c(C)c2)C(=O)c2ccc(OC)cc2)c1 (stereo not drawn) [CY-12, reference compound]
- pKa (standard measurement, read-out: pKa at the coupling site): 8.7

Structure (SMILES): CCCCCCCCCCCCCCCCNS(=O)(=O)c1ccc(Cl)c(NC(=O)C(OC(=O)N(CCCC)c2ccc(/C=C(\C#N)c3nc4ccccc4o3)c(C)c2)C(=O)c2ccc(OC)cc2)c1 (stereo not drawn) [CY-13, reference compound]
- pKa [3]: 8.8

More lines, now with the values ahead:

- pKa [1]: 7.4
Structure (SMILES): CCCCCCCCCCCCS(=O)(=O)c1ccc(NC(=O)C(OC(=O)N(C)c2ccc(/C=C(\C#N)c3nc4cc(C(C)(C)C)ccc4o3)c(C)c2)C(=O)c2ccccc2)c(Cl)c1 (stereo not drawn) [Coupler Y-1]

- pKa [1]: 8.5
Structure (SMILES): CCCCCCCCCCCCCCCCNS(=O)(=O)c1ccc(Cl)c(NC(=O)C(OC(=O)N(C)c2ccc(/C=C(\C#N)c3nc4cc(C(C)(C)C)ccc4o3)c(C)c2)C(=O)c2ccc(OC)cc2)c1 (stereo not drawn) [Coupler Y-2]

- pKa [4]: 7.8
Structure (SMILES): CCCCCCCCCCCCS(=O)(=O)c1ccc(NC(=O)C(OC(=O)N(c2ccc(/C=C(\C#N)c3nc4cc(C(C)(C)C)ccc4o3)c(C)c2)C2CCCC2)C(=O)c2ccccc2)c(Cl)c1 (stereo not drawn) [Coupler Y-3]

- pKa [4]: 8.2
Structure (SMILES): COc1ccc(C(=O)C(OC(=O)N(c2ccc(/C=C(\C#N)c3nc4cc(C(C)(C)C)ccc4o3)c(C)c2)C2CCCC2)C(=O)Nc2ccc([N+](=O)[O-])cc2Cl)cc1 (stereo not drawn) [Coupler Y-4]

- pKa [2]: 7.4
Structure (SMILES): CCC(C)(C)c1cc(C(C)(C)CC)c2oc(/C(C#N)=C/c3ccc(N(C(=O)OC(C(=O)Nc4ccc([N+](=O)[O-])cc4Cl)C(=O)c4ccccc4)C4CCCC4)cc3C)nc2c1 (stereo not drawn) [Coupler Y-5]

- pKa [3]: 8
Structure (SMILES): CCCCCCCCCCCCNS(=O)(=O)c1ccc(NC(=O)C(OC(=O)N(c2ccc(/C=C(\C#N)c3nc4ccccc4o3)c(C)c2)C2CCCC2)C(=O)c2ccccc2)c(Cl)c1 (stereo not drawn) [Coupler Y-9]

- pKa [5]: 7.2
Structure (SMILES): CCCCCCCCCCCCS(=O)(=O)c1ccc(NC(=O)C(OC(=O)N(c2ccc(/C=C(\C#N)c3nc4ccccc4o3)c(C)c2)C2CCCC2)C(=O)c2ccc(Cl)cc2)c(Cl)c1 (stereo not drawn) [Coupler Y-10]

- pKa [5]: 7
Structure (SMILES): CCCCCCCCCCCCS(=O)(=O)c1ccc(NC(=O)C(OC(=O)N(CC)c2ccc(/C=C(\C#N)c3nc4cc(C(C)(C)CC(C)(C)C)ccc4o3)c(C)c2)C(=O)c2ccc(Cl)cc2)c(Cl)c1 (stereo not drawn) [Coupler Y-11]
